{"source": "patent US20180214462A1", "about": "(priority 2015, published 2018)", "key": {"exposed rat neocortex": {"system": "exposed rat neocortex", "assay": "NMDA-R antagonists during 4AP-induced recurrent seizures: BBB permeability, ECoG, vessel diameter", "format": "in vivo", "conditions": "4AP seizures, Memantine 40 mg/kg IP or D-AP5 100 μM topical; for seizure-induced permeability increase / BBB damage: pooled, p=0.02", "experimental": "(§1) Dynamic imaging of regional cerebral blood flow (rCBF) and BBB permeability measurements were performed as reported (Chassidim et al., 2014; Prager et al., 2010). The non-BBB permeable fluorescent dye, sodium fluorescein (NaFlu) was injected intravenously (1 mg/ml, 0.2 ml/injection, in 0.9% NaCl). Full-resolution (658×496 pixel) images of cortical surface vessels were obtained (5 frames/second, EMCCD camera: Andor Technology, DL-658 M-TIL, FIG. 4C) before, during and after injection of the tracer. Offline image analysis was carried out using MATLAB (MathWorks, Natick, USA) and included: sub-pixel image registration, segmentation using noise filtration, hole-filling and adaptive threshold to produce a binary image, separating blood vessels from extra-vascular regions (FIG. 4D). Signal intensity changes over time and space were then analyzed so that each pixel was represented by intensity vs. time (IT) curve (FIG. 4E). An arterial IT curve (AIF) was created by spatially averaging signal intensity through time in the primary artery. A BBB permeability index (PI) (FIG. 4E) was calculated for each extra-vascular pixel as the ratio between IT curve and AIF, from the point of the second decline phase to the end of the measurement\nECoG was recorded using a telemetric system (DSI Ltd.). Two electrodes were implanted, one attached to an intra-cranial screw adjacent to the exposed cortex, and the second placed over the exposed cortex while secured with bone wax and dental cement. In-house MATLAB scripts were used to display and record signals for post-processing. Signals were sampled at 200 Hz and filtered using a MATLAB simulated Butterworth filter, so to display only the desired frequency band (10-40 Hz). The mean power was calculated using the MATLAB “pwelch” function.\nSince prolonged and recurrent epileptic seizures may also be associated with vascular pathology and damage to the BBB through the activation of NMDA-R, the effect of NMDA-R antagonists after the induction of recurrent seizures in anesthetized rats was tested. The epileptogenic substance 4AP was applied on the surface of the brain while monitoring ECoG.\nAnimals were treated with either topical application of the specific NMDA-R blocker D-AP5 (100 μM) (prior to and during seizure induction), or systemically with the FDA approved memantine (40 mg/kg, intraperitonealy, immediately following seizure onset)."}, "cortex of rats": {"system": "cortex of rats", "format": "in vivo, rat", "conditions": "for increase in vessel permeability: cortical perfusion 1 mM, TTX, CNQX and PTX present", "experimental": "(§2) Body temperature was continuously monitored and kept stable at 37±0.5° C. using a feedback-controlled heating pad (Physitemp Ltd.). Heart rate, breath rate and oxygen saturation levels were continuously monitored using STARR (Life Sciences Ltd.). A cranial section (4 mm caudal, 2 mm frontal, 5 mm lateral to bregma) was removed over the right sensory-motor cortex. The dura and arachnoid layers were removed (FIG. 4B) and the exposed cortex was continuously perfused with ACSF (Prager et al., 2010) containing (in mM): 124 NaCl, 26 NaHCO3, 1.25 NaH2PO4, […], 2 CaCl2, 3 KCl, and 10 Glucose (pH 7.4).\n(§3) To block neuronal activity tetrodotoxin (TTX) (Narahashi et al., 1964) (10 μM), 6-Cyano-2,3-dihydroxy-7-nitro-quinoxaline (CNQX) (Yoshiyama et al., 1995) (50 μM), D-AP5 (Morris, 1989) (50 μM) and picrotoxin (PTX) (Yoon et al., 1993) (50 μM) were added to the perfusing solution (ACSF). To induce prolonged seizures (status epilepticus, SE), 4AP (Uva et al., 2013) (500 μM) or PTX (100 μM) were added to the ACSF. Electrocorticgram (ECoG) was recorded using bi-polar electrodes and a telemetric recording system (DSI Ltd.). In some cases, thrombotic stroke was induced using photothrombosis (Prado, 1987). Detection of calcium ions in the rat cortex was done with calcium chelators as previously reported (Stosiek et al., 2003). 50 μg of the fluorescent chelator OGB were dissolved in 4 μl of dimethyl sulfoxide) DMSO) containing 20% pluronic f-127. This mixture was diluted in […] of a loading solution containing (in mM): 150 NaCl, 2.5 KCl, 10 HEPES, in ddH2O (pH=7.4).\nas §1\nThe PI indicates how much tracer remains in extra-vascular tissue in relation to the applied amount. PI>1 indicates tracer accumulation and defines BBB dysfunction. Fitting a PI to each extra-vascular pixel enabled spatial mapping of BBB permeability (FIG. 4F). The PI for each vascular pixel was set to 0, and therefore vessels were excluded from the map. The global permeability of a region was calculated by averaging its PI values. Permeability measurements with this approach are possible only for regions with fully functional vasculature as the transfer of molecules between vessel and parenchyma is quantified. Increased permeability in damaged vessels is not depicted here. […]"}, "peri-ischemic cortex": {"system": "peri-ischemic cortex", "assay": "Photothrombosis stroke model: BBB dysfunction in the peri-ischemic cortex", "format": "in vivo, rat", "experimental": "as §1, with “Offline image analysis was carried out using MATLAB (MathWorks, Natick, USA) and included: sub-pixel image registration, segmentation using noise filtration, hole-filling and adaptive threshold to produce a binary image, separating blood vessels from extra-vascular regions (FIG. 4D).” left out, “An arterial IT curve (AIF) was created by spatially averaging signal intensity through time in the primary artery.” left out\nThe PI indicates how much tracer remains in extra-vascular tissue in relation to the applied amount. […] The global permeability of a region was calculated by averaging its PI values. Permeability measurements with this approach are possible only for regions with fully functional vasculature as the transfer of molecules between vessel and parenchyma is quantified. […]"}, "[1]": {"system": "cultured brain endothelial cells", "conditions": "cited from earlier work"}, "[2]": {"system": "vessels' wall (rat neocortex)", "assay": "Calcium imaging (OGB, probe-based confocal laser endomicroscopy) in vessel wall after drop application of glutamate", "format": "in vivo", "experimental": "as §3\nThe exposed cortex was incubated with the final mixture for 1 hour. Probe-based confocal laser endomicroscopy (PCLE) was performed using Cellvizio dual band (Mauna Kea Technologies Ltd.) at 488 and 660 nm. […]\nIn control experiments, brains were exposed to ACSF for 60-120 min, no significant change in permeability was measured, excluding a time-dependent increase in permeability (“control”, −5.11±3.07%, n=16, P=0.7, Wilcoxon, FIG. 2A). […]"}, "exposed cortex": {"system": "exposed cortex", "assay": "Focally-induced cortical seizures (4AP or PTX): intravital fluorescence angiography of vessel diameter and BBB permeability", "format": "in vivo, rat", "conditions": "for increase in vessel diameter: seizures induced by 4AP (n=6) or PTX (n=2), pooled n=8, immediate", "experimental": "All experimental procedures in animals were approved by the Ben-Gurion University ethics committee for animal testing. Unless otherwise mentioned, all materials were purchased from Sigma-Aldrich ltd. Surgical procedures in male Spraugue-Dawley rats (200-380 g BW) were performed as previously reported (Prager et al., 2010). Rats were deeply anesthetized by intraperitoneal administration of either isoflurane or ketamine (100 mg/ml, 0.08 ml/100 gr) and xylasine (20 mg/ml, 0.06 ml/100 gr). The tail vein was catheterized, and animals were placed in a stereotactic frame (FIG. 4A) under a SteREO Lumar V12 fluorescence microscope (Zeiss, Gottingen, Germany).\nas §2, §3, §1\nThe PI indicates how much tracer remains in extra-vascular tissue in relation to the applied amount. PI>1 indicates tracer accumulation and defines BBB dysfunction. Fitting a PI to each extra-vascular pixel enabled spatial mapping of BBB permeability (FIG. 4F). The PI for each vascular pixel was set to 0, and therefore vessels were excluded from the map. The global permeability of a region was calculated by averaging its PI values. […]"}, "[3]": {"assay": "Preventing intracellular calcium elevation with calcium chelators in vivo", "conditions": "data not shown", "description": "The observations that direct application of NMDA similarly enhances permeability, and that permeability increase is blocked in the presence of NMDA-R blockers (FIG. 2A) indicate that the effect of glutamate is mediated by NMDA-R. Our experiments showing increased intracellular calcium in vascular endothelium in response to glutamate are consistent with previous in vitro data showing that NMDA-mediated effects are dependent on increased intracellular calcium (Krizbai et al., 1998; Sharp et al., 2003). However, we cannot rule out non-calcium dependent signaling mechanisms and the role of other components of the neurovascular unit, such as astrocytes and pericytes, which could also respond to glutamate and signal brain endothelial cells to alter permeability (Carmignoto and Gómez-Gonzalo, 2010). […] The intracellular signaling leading to enhanced permeability is also not clear. […] The latter seems unlikely with the relatively short time delay between insult (seizure/stroke) and enhanced permeability. Modulation of transcellular transport mechanisms (e.g. intercellular adhesion molecule-ICAM mediated) (Yang et al., 2005)) may also be involved."}, "[4]": {"conditions": "30 minutes from seizure onset, recurrent seizures, n=7"}, "[5]": {"conditions": "~10 minutes from seizure onset, 4AP or PTX pooled, n=8"}}, "note": "Entries after “also recorded” stand apart in the source; their conditions may differ."}
{"compound": "N[C@H](CCCP(=O)(O)O)C(=O)O", "note": "[D-AP5, R-2-amino-5-phosphonopentanoate]", "values": [{"measurement": "seizure intensity (ECoG)", "setting": "exposed rat neocortex", "result": "no impact"}, {"measurement": "seizure-induced permeability increase / BBB damage", "setting": "exposed rat neocortex", "result": "diminished"}, {"measurement": "change in vessel permeability by glutamate in the presence of antagonist", "setting": "cortex of rats; glutamate + D-AP5 50 μM", "result": "−3.81±4.34", "unit": "%"}, {"measurement": "averaged percent increase in permeability in the peri-infarct cortex", "setting": "peri-ischemic cortex; 30 and 60 min following PT, n=7, p=0.13", "result": "non-significant change"}, {"measurement": "spatial progression of BBB dysfunction in the peri-ischemic region", "setting": "peri-ischemic cortex; 30 and 60 minutes after clot induction, vs absence of D-AP5", "result": "significantly reduced; also recorded: significantly diminishes"}]}
{"compound": "CN[C@H](CC(=O)O)C(=O)O", "note": "[NMDA, N-methyl-d-aspartate]", "values": [{"measurement": "increase in vessel permeability", "setting": "cortex of rats", "result": "18.44±7.58", "unit": "%"}]}
{"compound": "N[C@@H](CCC(=O)O)C(=O)O", "note": "[glutamate]", "values": [{"measurement": "permeability of cultured brain endothelial cells", "setting": "[1]", "result": "increase permeability"}, {"measurement": "tight junction protein occludin", "setting": "[1]; glutamate 1 mM, NMDA-R mediated", "result": "reduction in the levels and cellular redistribution"}, {"measurement": "electrical resistance", "setting": "[1]; glutamate 1 mM", "result": "lower electrical resistance"}, {"measurement": "increase in vessel permeability", "setting": "cortex of rats", "result": "18.15%±5.9%"}, {"measurement": "change in vessel diameter", "setting": "cortex of rats; glutamate application with TTX, CNQX, PTX", "result": "3.12±2.24", "unit": "%"}, {"measurement": "shift in vascular diameter", "setting": "cortex of rats; topical glutamate 1 mM with axonal and synaptic transmission blockers", "result": "not inducing a shift in vascular diameter"}, {"measurement": "calcium signal in the vessel wall", "setting": "[2]; drop application of glutamate", "result": "Rise in calcium signal"}, {"measurement": "duration of increase in endothelial intracellular calcium", "setting": "[2]; drop application of glutamate 0.01-1 mM, n=109", "result": "12.5 ± 1.3", "unit": "s"}]}
{"compound": "CC12CC3CC(C)(C1)CC(N)(C3)C2", "note": "[memantine]", "values": [{"measurement": "seizure intensity (ECoG)", "setting": "exposed rat neocortex", "result": "no impact"}, {"measurement": "seizure-induced permeability increase / BBB damage", "setting": "exposed rat neocortex", "result": "diminished"}]}
{"compound": "Nc1ccncc1", "note": "[4AP]", "values": [{"measurement": "increase in vessel permeability to NaFlu", "setting": "exposed cortex; [4]", "result": "14.17±4.65", "unit": "%"}, {"measurement": "increase in vessel diameter", "setting": "exposed cortex", "result": "10.05±1.01", "unit": "%"}, {"measurement": "increase in vessel permeability to NaFlu", "setting": "exposed cortex; [5]", "result": "20.01±7.24", "unit": "%"}]}
{"compound": "picrotoxin [PTX]", "values": [{"measurement": "increase in vessel permeability to NaFlu", "setting": "exposed cortex; [4]", "result": "14.17±4.65", "unit": "%"}, {"measurement": "increase in vessel diameter", "setting": "exposed cortex", "result": "10.05±1.01", "unit": "%"}, {"measurement": "increase in vessel permeability to NaFlu", "setting": "exposed cortex; [5]", "result": "20.01±7.24", "unit": "%"}]}
{"compound": "CC(=O)OCOC(=O)CN(CC(=O)OCOC(C)=O)c1ccccc1OCCOc1ccccc1N(CC(=O)OCOC(C)=O)CC(=O)OCOC(C)=O", "note": "[BAPTA-AM]", "values": [{"measurement": "vascular side effect in vivo", "setting": "[3]", "result": "massive vasoconstriction and associated ischemia"}]}
